Laboratory results from patent US20220193021A1 (priority 2019, published 2022).
Where a name gives a salt, the structure may show the parent alone.

Tests used:
Format in all cases: cell-based
[1] = system: serine proteases (TMPRSS4, TMPRSS11D, TMPRSS2, and DESC1); test: Protein levels of serine proteases in human lung airway chips; conditions: 10 μM versus vehicle
Excerpt: Protein levels of chips treated with nafamostat mesylate are relative to chips not treated with nafamostat mesylate.

[2] = system: serine proteases (TMPRSS4, TMPRSS11D, TMPRSS2, and DESC1); test: mRNA levels of serine proteases in human lung airway chips; conditions: 10 μM versus vehicle
[3] = system: influenza virus protein hemagglutinin 0 (HA0)
[4] = system: influenza virus

Row | Structure (SMILES) | effect on protein expression of serine proteases [1] | effect on mRNA expression of serine proteases [2] | effect on the cleavage of HA0 [3] | therapeutic window [4]
1 | N=C(N)c1ccc2cc(OC(=O)c3ccc(N=C(N)N)cc3)ccc2c1 [nafamostat mesylate] | no effect | no effect | efficiently block | 
2 | CCOC(=O)C1=C[C@@H](OC(CC)CC)[C@H](NC(C)=O)[C@@H](N)C1 [oseltamivir] |  |  |  | approximately 48 hours
